Data from patent US5908788A, “Method of monitoring patient compliance with medications prescriptions” (priority 1996, dated 1999).
Several values for one entry are separate records, joined by “and”; a condition that tells them apart may be missing. Equal values may be shown once.

What was measured:
[1] = Urine Coc level of patient on codeine; format: in vivo, human; details: Table J, patient four
Procedure: (§1) Shown in FIG. 13 are mean nup values for codeine as a function of daily, total dose. […]. Her mean codeine level while stabilized on 90 mg of codeine qd, as shown on FIG. 13, should be 19,102 +/-3840 ng/ml.

[2] = in vivo
Source text: To determine compliance with the prescribed medication dose, random urine samples are obtained from the patient and analyzed in accordance with the invention as described in FIG. 9. […] The raw urine medication concentration (u) is next converted to a normalized urine medication concentration (nu) as discussed below. Over time, a normalized urine medication concentration-daily medication dose relationship is derived for each individual patient, which can be compared to the relationship expected for that particular patient. Alternatively, by adjusting the normalized urine medication concentration relative to the urinary pharmacokinetic parameters for each medication, a urinary-parameter normalized urine medication concentration (nup) may be calculated and compared to that expected for an average patient to determine compliance with the patient's prescribe medication dose.
nu=u'=u·(v/v')=u·UVPRF=u·(k1
The relationships for any medication family between nu and the medication pharmacokinetic parameters are empirically developed using regression analysis.
nup (patient body weight/k3)·u·UVPRF (19)
Two methods of interpreting urine medication results for compliance monitoring have now been developed. The first and most primitive method is to simply establish, using data from controls and compliant patients, mean drug levels and the expected ranges (minimums and maximums) for the nup of each particular medication at each particular daily, total dose amount.

[3] = Urine opiate concentration (codeine, oxycodone), urinary-parameter normalized; format: in vivo, human
Procedure: as §1
patient three is a person requiring opioid medications for severe arachnoiditis following surgery in the lumber spine. They were prescribed oxycodone without acetaminophen since they are status post removal of one kidney because of renal carcinoma. Shown in Table K are their oxycodone levels (40 mg per day total dose) which are within acceptable limits of 800-1600 ng/ml.

[4] = Plasma methadone calculated from spot urine versus measured plasma methadone (FIG. 7)
[5] = Renal excretion rate in timed urine aliquots of compliant control subjects; format: in vivo, human; details: as function of urine volume production rate, during a typical day
[6] = Urine methadone concentration (FPIA) of maintenance patients, with calculated plasma methadone concentration and urinary-parameter normalized urine concentration
Source text: The unadulterated sample is next analyzed for raw urine methadone concentration, preferably using fluorescence polarization immunoassay (FPIA) technology. In this regard an Abbott TDX or ADX Analyzer may be profitably employed. Other standard analytical methods may also be used such as chromatography or other types of immunoassay. […]
where cl is renal clearance (ml/min), u is raw urine methadone concentration (ng/ml), v is the volume of urine collected in time (ml/min) or otherwise known as the urine volume production rate, and p is the measured plasma methadone concentration at the midpoint of the collection period (ng/ml).
Combining all of the above considerations, plasma methadone concentrations can be calculated by substituting Equations (2, 8, 9 and 10) in Equation (3): [formula] where values of u, specific gravity, and pH are known from previous test results on a patient's spot urine sample. The equation may be more generally expressed as follows: […]
p=k3 ·u·(k1 SGF-k2)/k4
FIG. 6 was developed by utilizing data from 8300 urine samples from 150 methadone maintenance patients on controlled daily methadone dosages.
The parameters of a patient's urine, such as pH and specific gravity, vary from one day to the next dependant upon the type and quantities of foods and beverages ingested. Additionally, individuals metabolizes these substances, as well as methadone, at different rates. To account for these variations, a urinary-parameter normalized urine methadone concentration, nup, is calculated that adjusts measured raw urine methadone concentration, u, in accordance with a prescribed methadone dose, urine specific gravity, patient's current body weight (lbs) and urine pH. The relationship between u, pH, dose and specific gravity was empirically developed using nonlinear regression analysis. […]
nup =(k3 /DOSE)^k4 ·(k5 /pH)^k6 […]
Given this value, another set of prediction equations specifying the allowable range for the next measured nup for a particular patient, given a sample size of n, a mean nup for an individual patient and either the patient standard deviation or the population standard deviation (whichever is least), can be calculated as shown in Hahn and Meeker. If the measured value is within the acceptable statistical range, given a previously calculated mean and standard deviation, then it is accepted. If the value is too high or too low, this is marked on the urine drug screen under the column called Pred, as shown in clinical cases #'s 4 and 5, Tables F and G.

migraine = assay: Clinical cases: migraine in patients on methadone maintenance; format: in vivo, human
[7] = to deter illicit opioid use; past studies; cited from earlier work
[8] = Table A, compliant patient, dose 60 mg/day, individual dates
[9] = Table A, compliant patient, dose 70 mg/day, individual dates
[10] = Table A, mean of 12 tests, 60-70 mg/day
[11] = Table B, patient one, dose 45 mg, individual dates
[12] = Table B, patient one, mean of 12 tests, 45 mg
[13] = Table C, patient two, mean of 12 tests, dose 40-100
[14] = Table D, patient two (barbiturates discontinued), dose 130
[15] = Table D, patient two, mean of 12 tests, dose 110-130
[16] = Table G, mean of 13 tests, dose 130
[17] = patient two, 130 mg per day methadone

COC(=O)[C@H]1[C@@H](OC(=O)c2ccccc2)C[C@@H]2CC[C@H]1N2C [Coc]
Coc [1]: 0

Cc1nnc2n1-c1ccc(Cl)cc1C(c1ccccc1)=NC2 [alprazolam]
Xanax level, mean ([2]; human): 4268 ng/mL | SD of alprazolam normalized concentration, % of mean [2]: ~15% | SEE of nup = k*Dose [2]: 210 | importance of urine pH for nup [2]: not important

COc1ccc2c3c1O[C@H]1[C@@H](O)C=C[C@H]4[C@@H](C2)N(C)CC[C@@]341 [codeine]
mean codeine level (nup) ([3]; FIG. 13, patient four stabilized on 90 mg of codeine qd): 19,102 +/-3840 ng/ml | Opi (nup, codeine), mean ([3]; Table J, patient four, mean of 9 tests, 90 mg codeine qd): 19102 ng/mL

CN1C(=O)CN=C(c2ccccc2)c2cc(Cl)ccc21 [diazepam]
SEE of nup = k*Dose [2]: 806 | importance of urine pH for nup [2]: not important | nup per daily dose (coefficient of nup = k*Dose) [2]: 267(SE 16.9)

CCC(=O)C(CC(C)N(C)C)(c1ccccc1)c1ccccc1 (stereo not drawn) [methadone]
adjusted squared multiple R, estimated versus measured plasma methadone concentration ([4]; FIG. 7): 0.987 | slope, estimated versus measured plasma methadone concentration ([4]; FIG. 7, linear regression, intercept -1.25 (SE 11.495), F-ratio 810): 0.970 (SE 0.034) | renal excretion rate (mg/min) [5]: relatively constant | nup, urinary-parameter normalized urine methadone concentration [6, 8]: 7448 ng/mL and 9473 ng/mL | u, raw urine methadone concentration [6, 8]: 7049 ng/mL and 4935 ng/mL | nup, urinary-parameter normalized urine methadone concentration [6, 9]: 6966 ng/mL and 7381 ng/mL and 10913 ng/mL and 7430 ng/mL and 7208 ng/mL and 6254 ng/mL and 5532 ng/mL and 7790 ng/mL and 5852 ng/mL and 6881 ng/mL | u, raw urine methadone concentration [6, 9]: 6838 ng/mL and 6536 ng/mL and 5462 ng/mL and 5180 ng/mL and 7398 ng/mL and 5990 ng/mL and 4203 ng/mL and 8469 ng/mL and 3736 ng/mL and 5601 ng/mL | nup, mean [6, 10]: 7427 ng/mL | u, mean [6, 10]: 5950 ng/mL | nup, urinary-parameter normalized urine methadone concentration [6, 11]: 21153 ng/mL and 25720 ng/mL and 22145 ng/mL and 32208 ng/mL and 10174 ng/mL and 13051 ng/mL and 15585 ng/mL and 17845 ng/mL and 7585 ng/mL and 10815 ng/mL and 20168 ng/mL and 18777 ng/mL | u, raw urine methadone concentration [6, 11]: 1069 ng/mL and 1336 ng/mL and 2109 ng/mL and 1883 ng/mL and 646 ng/mL and 1246 ng/mL and 1285 ng/mL and 757 ng/mL and 4094 ng/mL and 1318 ng/mL and 3900 ng/mL and 915 ng/mL | nup, mean [6, 12]: 17265 ng/mL | u, mean [6, 12]: 1713 ng/mL | u, raw urine methadone concentration ([6]; Table C, patient two, dose 40): 174 ng/mL and 296 ng/mL | nup, urinary-parameter normalized urine methadone concentration ([6]; Table C, patient two, dose 50): 2924 ng/mL | u, raw urine methadone concentration ([6]; Table C, patient two, dose 50): 853 ng/mL | nup, urinary-parameter normalized urine methadone concentration ([6]; Table C, patient two, dose 65): 1367 ng/mL | nup, urinary-parameter normalized urine methadone concentration ([6]; Table C, patient two, dose 80): 1070 ng/mL | u, raw urine methadone concentration ([6]; Table C, patient two, dose 80): 1120 ng/mL | nup, mean [6, 13]: 1709 ng/mL | u, mean [6, 13]: 1456 ng/mL | nup, urinary-parameter normalized urine methadone concentration [6, 14]: 7728 ng/mL and 5944 ng/mL and 5117 ng/mL | u, raw urine methadone concentration [6, 14]: 4915 ng/mL and 6565 ng/mL and 9494 ng/mL | nup, urinary-parameter normalized urine methadone concentration ([6]; Table D, patient two, dose 110): 6580 ng/mL and 6703 ng/mL and 10880 ng/mL and 6025 ng/mL | nup, urinary-parameter normalized urine methadone concentration ([6]; Table D, patient two, dose 120): 8970 ng/mL and 6778 ng/mL and 8074 ng/mL and 11966 ng/mL and 6031 ng/mL | nup, mean [6, 15]: 7236 ng/mL | u, mean [6, 15]: 7036 ng/mL | Pred (flag: nup outside statistical range predicted for patient) ([6]; Table F, case #4, dose 140): High | nup, mean ([6]; Table F, mean of 11 tests, dose 120-140): 5130 ng/mL | u, mean ([6]; Table F, mean of 12 tests, dose 120-140): 8008 ng/mL | Pred (flag: nup outside statistical range predicted for patient) ([6]; Table G, case #5, dose 130): LOW and HIGH | nup, mean [6, 16]: 8396 ng/mL | u, mean [6, 16]: 10585 ng/mL | average population standard deviation of nup ([6]; acceptably compliant methadone patients): about 3000 | plasma methadone levels over time ([6]; patient two, Tables C and D, after discontinuing barbiturate-containing compounds): increased | migraine attacks during treatment (migraine; patient one, 36 months, 45 mg methadone): 2 migraine attacks | frequency and severity of migraines (migraine; patient one, titration to 45 mg methadone): migraines slowly decayed in frequency and severity | plasma methadone level related to migraine attacks (migraine; patient one, transient decrease after vomiting): below 80 ng/ml | migraine response (migraine; [17]): migraines ceased completely | plasma methadone level at which migraines ceased completely (migraine; [17]): above 135 ng/ml | optimum/necessary (24-hour trough) plasma methadone concentration [7]: 150 to 600 ng/mL

Oc1ccc2c3c1O[C@H]1[C@@H](O)CC[C@@]4(O)[C@@H](C2)N(CC2CCC2)CC[C@]314 [nalbuphine]
control of migraine pain (migraine; patient two, self-administered IM): failure

COc1ccc2c3c1O[C@H]1C(=O)CC[C@@]4(O)[C@@H](C2)N(C)CC[C@]314 [oxycodone]
nup, Opi (oxycodone), mean ([3]; Table K, patient three, mean of 12 tests, 40 mg per day): 1206 ng/mL | oxycodone levels, acceptable limits ([3]; patient three, 40 mg per day total dose): 800 to 1600 ng/mL
